How the values were obtained:
Bowes cells = test: Cell viability measurement (CellTiter-Glo); type: cell-based, human; settings: 24 h in 10% FBS-MEM
Procedure: Bowes human melanoma cells were obtained from American Type Culture Collection (Manassas, Va.). Bowes cells were cultured in Minimal Essential Medium with Earie's sats complemented with Glutamax-I, non-essential amino acids, sodium pyruvate, penicillin, streptomycin (referred on figures as “MEM”) and 10% foetal bovine serum (FBS). All media components for Bowes cells were from invitrogen Corporation (Paisley, UK). Trypsin/EDTA was from PAA laboratories GmbH (Linz, Austria). Cells were subcultured once a week, seeding 200 000 cells per T75. For the viability assays, 50 000 cells (in 300 μl) were seeded per a well in a 24-well-plate a day before the experiment. K562 human erythroleukemia cells were obtained from American Type Culture Collection (Manassas, Va.). K562 cells were cultured in RPMI-1640 medium complemented with Glutamax-I, penicillin, streptomycin (referred in FIG. 32-35 as “RPMI”) and foetal bovine serum (7.5%). All media components for K562 cells were from invitrogen Corporation (Paisley, UK). […]
The stock solutions of the conjugates (1 mM) were prepared in sterile water and the stock solution of MTX in 10% DMSO in water. […] Then 300 μl was transferred to a white polystyrene FluoroNunc™ plate (Nunc A/S, Roskilde, Denmark) and luminescence was recorded at dual-scanning microplate spectrofluorometer (SPECTRAmax® GEMINI XS, Molecular Devices, Sunnyvale, Calif.).

cells = test: Protein internalisation by YTA-2 of Fluo-Streptavidin; type: cell-based; settings: 67 kDa fluorescein labelled streptavidin linked to biotinylated peptide
Procedure: FIG. 39. Protein internalisation by YTA-2 of Fluo-Streptavidin 37° C. and T/E, showing the delivery property of a selCPP.
FIG. 40. Protein internalisation by YTA-2 of Fluo-Streptavidin 4° C. and T/E, showing the delivery property and temperature independency of a selCPP.

MMP2 = target: T1, MMP2 (Homo sapiens, UniProt P08253); test: Specific cleavage by matrix metallo proteinase-2; type: biochemical; settings: mass spectrometry, data not shown
T1 construct: check the specific cleavage of YTA-2 ps by active MMP-2
T1 sequence (P08253 110-660): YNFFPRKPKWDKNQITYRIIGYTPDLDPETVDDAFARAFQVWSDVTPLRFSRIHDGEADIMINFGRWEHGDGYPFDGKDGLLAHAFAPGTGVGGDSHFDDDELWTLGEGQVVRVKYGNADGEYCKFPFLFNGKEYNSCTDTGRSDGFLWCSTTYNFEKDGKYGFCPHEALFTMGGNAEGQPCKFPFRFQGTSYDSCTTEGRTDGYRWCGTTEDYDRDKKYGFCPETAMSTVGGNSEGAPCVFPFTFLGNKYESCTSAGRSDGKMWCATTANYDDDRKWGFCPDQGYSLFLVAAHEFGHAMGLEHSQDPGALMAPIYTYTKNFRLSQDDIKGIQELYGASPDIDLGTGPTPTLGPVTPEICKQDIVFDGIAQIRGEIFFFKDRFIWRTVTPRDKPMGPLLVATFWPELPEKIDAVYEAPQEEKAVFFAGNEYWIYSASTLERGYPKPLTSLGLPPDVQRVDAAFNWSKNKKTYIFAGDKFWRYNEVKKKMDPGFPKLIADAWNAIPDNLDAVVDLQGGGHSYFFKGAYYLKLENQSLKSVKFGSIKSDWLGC
Procedure: (data not shown). […] The next step in the development of this technique is to check the specific cleavage of YTA-2 ps by active MMP-2. It is performed by a fluorescence/quencher assay, wherein the MMP-2 substrate YTA-2 ps upon cleavage increases in fluorescence intensity. The correct cleavage is further checked by mass spectrometry.

LoVo cells = test: Internalisation of biotinylated selCPPs, fluorescence microscopy; type: cell-based, human
Procedure: One aspect of the present invention thus comprises a method for screening the cellular uptake of a broad variety of CPPs in vitro, wherein cells are grown on glass cover slips to suitable, such as 50%, density, whereupon the media is changed to serum free and a blotinylated peptide solution is added. The cells are then incubated, washed, fixed and the peptides are visualised by staining with, e.g. avidin-FITC, or streptavidin-TRITC, and the cell nuclei are counterstained, e.g. with Hoechst. Images are preferably obtained with a fluorescence microscope and evaluated.
FIG. 5. Example of inactivated selCPP. Internalisation of YTA-2 (A) compared to YTA-2 ps (B) In LoVo cells, both biotynilated peptides detected by TRITC-avidin at 37° C.
The cells were grown on round glass cover slips (12 mm, GTF, Sweden) in a 24-well plate to approximately 50% confluence. The media was changed to serum free and the biotinylated peptide solutions were added. The cells were incubated for 30 min at 37 or 4° C. The cells were washed twice with PBS, fixed with 4% paraformaldehyde solution 15 min at room temperature (dark) and then permeabilised in 30 mM HEPES buffer containing 0.5% w/v Triton X-100, 3 min on Ice. Sites for unspecific binding were blocked In PBS containing 3% (w/v) bovine serum albumin, overnight at 4° C. The peptides were visualised by staining with avidin-FrTC or streptavidin-TRITC (Molecular Probes, the Netherlands). The cell nuclei were stained with Hoechst 33258 (0.5 μg/ml) for 5 min, after which the cover slips were washed 3 times with PBS and mounted in 25% glycerol in PBS. The images were obtained with a Leica DM IRE2 fluorescence microscope (Leica Microsystem., Sweden) and processed in PhotoShop 6.0 software (Adobe Systems Inc., CA) (See e.g. FIG. 38-40).

## Apa-γGlu-Gly-pVEC
Bowes cells
  toxic effect on cell viability: more toxic than Apa-Glu-Gly-pVEC

## YTAIAWVKAFIRKLRK [YTA-2]
cells
  cargo transport: can transport large cargo molecules into cells
MMP2
  cleavage by MMP2: confirmed by mass spectrometry
LoVo cells
  Comment (staining/localisation): stain also nuclear
LoVo cells; 37° and 4° C.
  Entry into cells: can efficiently enter cells
